From patent US20250084041A1, “ANTIMICROBIAL COMPOUNDS AND METHODS” (Curza Global, LLC, priority 2021, published 2025) come the findings set out here.

One test deals with S. aureus (Sa). Description: Broth microdilution MIC, S. aureus. As to conditions: Staphylococcus aureus, read-out: Sa + bicarb 25 (MIC). It counts as cell-based. The method, then: (§1) A certified BSL-2 laboratory was used for testing. Compounds were evaluated using the broth microdilution minimum inhibitory concentration (MIC) and minimum bactericidal concentration (MBC) assays defined by Clinical and Laboratory Standards Institute (CLSI) in the M26-A guideline against S. aureus (Sa), E. coli (Ec), K. pneumoniae (Kp), A. baumannii (Ab), E. faecalis (Ef) and P. aeruginosa (Pa).
(§2) MICs were determined using the Clinical Laboratory and Standards Institute (CLSI) Broth Microdilution Method with slight modification. Clinical and Laboratory Standards Institute (2012). “Methods for dilution antimicrobial susceptibility tests for bacteria that grow aerobically; approved standard, 9th ed. M07-A9. Clinical and Laboratory Standards Institute, Wayne, PA.” Serial two-fold dilutions of compounds are prepared in sterile clear round-bottom 96-well plates.
(§3) To prepare microdilution trays, two-fold dilutions of antimicrobial agent are prepared in growth medium: Cation-Adjusted Mueller-Hinton Broth (CAMHB), or CAMHB supplemented with sodium bicarbonate (25 mM final concentration prepared from a 1.0 M stock solution) or CAMHB supplemented with heat inactivated human serum (Fisher Cat. #BP2657100) 0-50% by adding 200 μL of the highest concentration to be tested (64 μg/mL, for example) in row A, mixing and transferring 100 μL from row A to 100 μL growth medium in row B, then repeating the mixing and transferring through row H of the 96-well plate, discarding the excess 100 μL remaining. This slight modification to the CLSI protocol enables evaluation of MICs for 3 compounds per plate in triplicate, albeit with only 8 compound dilutions (CLSI protocol enables 2 compounds in triplicate with 10 dilutions). Bacterial suspensions are added to a final concentration of 5×10^4 CFU/well by adding 5 μL of a 1:10 dilution of a 0.5 McFarland suspension (1×10^8 CFU/mL) for each bacterium evaluated. Bacterial suspensions were prepared using the growth method described by CLSI. Well-isolated colonies (3-5 from an agar plate) were selected using a sterile loop and used to inoculate a tube containing 4 mL of CAMHB. The cultures are incubated at 35±2° C. until it achieves or exceeds the turbidity of the 0.5 McFarland standard, determined by measuring A600nm (usually two to six hours). When growth exceeds a 0.5 McFarland standard, the turbidity is adjusted with broth to be equivalent to a 0.5 McFarland standard.

In the next test the test system is E. coli (Ec). Description: Broth microdilution MIC, E. coli. Format: cell-based. The conditions noted are these: Escherichia coli, read-out: E. coli + bicarb 25 (MIC). The procedure: as §1, §2, §3
The test system of a further test is P. aeruginosa (Pa). Description: Broth microdilution MIC, P. aeruginosa. Format: cell-based. The conditions noted are these: Pseudomonas aeruginosa, read-out: Pa + bicarb 25 (MIC). The method, then:
as §1, §2, §3

A further test relates to A. baumannii (Ab). Description: Broth microdilution MIC, A. baumannii. Format: cell-based. The conditions noted are these: Acinetobacter baumannii, read-out: Ab + bicarb 25 (MIC). The procedure:
as §1, §2, §3

The test system of the next test is E. faecalis (Ef). The experiment in a line: Broth microdilution MIC, E. faecalis. It counts as cell-based. The conditions noted are these: Enterococcus faecalis, read-out: Ef + bicarb 25 (MIC). The method, then:
as §1, §2, §3

A further test concerns E. coli S30 extract. Description: E. coli S30 extract: inhibition of bacterial protein synthesis (luciferase). It counts as biochemical. The conditions noted are these: 37° C. 1 hour. The procedure:
E. coli S30 extract: Inhibition of bacterial protein synthesis was determined using the E. coli S30 Extract System for Circular DNA (Promega catalog #L-2010) and Luciferase Assay Reagent (Promega catalog #E1500) with slight modifications to a published protocol. Fyfe, C., Sutcliffe, J. A. and Grossman, T. H. (2012) “Development and characterization of a Pseudomonas aeruginosa in vitro coupled transcription-translation assay system for evaluation of translation inhibitors” J. Microbiol. Methods 90(3), 256-261.
Compounds were serial diluted in 0.5 mL microcentrifuge tubes by mixing and transferring 50 μL from the highest concentration to 50 μL of water, mixing and transferring 50 μL of this 2-fold dilution to 50 μL of water. This mixing and transferring was repeated so that there are a total of 8 tubes with serial dilutions of compound at 10× the desired screening concentration that are ultimately diluted to 1× by the addition of S30 luciferase synthesis mixture. Serial dilutions of compounds were added (2 μL) to wells in a black round bottom 96-well plate. Water (2 μL) was used as a “no inhibitor” control in 4 wells/plate. No DNA control reaction mixture (20 μL; see below) was used as a control in 4 wells/plate for background luminescence. S30 luciferase synthesis mixture (18 μL; see below) was added to wells with compounds or water mixture and incubated at 37° C. for 1 hour. Reactions were stopped by transferring to 4° C. refrigerator for 5 minutes then 25 μL of luciferase activity mix was added. Luminescence was measured using a BioTek Synergy HTX plate reader. % Inhibition was determined relative to no inhibitor controls.
• 445 μL S30 extract, circular • 712 μL S30 Premix without amino acids • 4.45 μL pBESTluc™ DNA (1 μg/μL) • 78 μL complete amino acid mixture • 267 μL water
• 20 μL S30 extract, circular • 32 μL S30 Premix without amino acids • 7 μL complete amino acid mixture • 21 μL water

Test [1] has as its target Rabbit Reticulocyte Lysate. The experiment in a line: Rabbit Reticulocyte Lysate: inhibition of eukaryotic protein synthesis (luciferase). It counts as biochemical. The conditions noted are these: 30° C. 90 minutes, read-out: Retic. IC50. The method, then: Inhibition of eukaryotic protein synthesis was determined using the Rabbit Reticulocyte Lysate System, Nuclease-Treated from Promega (catalog #L-4960) with slight modifications to the manufacturer's protocol. Compounds were serial diluted in 0.5 mL microcentrifuge tubes by mixing and transferring 50 μL from the highest concentration to 50 μL of water, mixing and transferring 50 μL of this 2-fold dilution to 50 μL of water. This mixing and transferring was repeated so that there are a total of 8 tubes with serial dilutions of compound at 10× the desired screening concentration that are ultimately diluted to 1× by the addition of rabbit reticulocyte luciferase synthesis mixture. Serial dilutions of compounds were added ([…]) to wells in a black round bottom 96-well plate. Water (2.5 μL) was used as a “no inhibitor” control in 4 wells/plate. No RNA control reaction mixture ([…]; see below) was used as a control in 4 wells/plate for background luminescence. Rabbit reticulocyte luciferase synthesis mixture (22.5 μL; see below) was added to wells with compounds or water mixture and incubated at 30° C. for 90 minutes. Luciferase assay reagent (25 μL) was added with luminescence measured using a BioTek Synergy HTX plate reader. % Inhibition was determined relative to no inhibitor controls.
• 1,000 μL rabbit reticulocyte lysate • 5.7 μL Luciferase Control RNA (1 μg/μL) • 26 μL complete amino acid mixture • 395 μL water
• 70 μL rabbit reticulocyte lysate • 2 μL complete amino acid mixture • 28 μL water

Where a name gives a salt, the structure may show the parent alone. Read-outs that look alike come from different tables or passages of the source. Where only a bound is given, the exact number is not on record here.

Turning to `CC(C)(N)C(=O)N1CCN(C(=O)Nc2ccn(C3=CCC(CN4CCCC(N)CC4)CC3)c(=O)n2)CC1` (single isomer, unassigned) [Compound 41, 4-(2-Amino-2-methylpropanoyl)-N-(1-(4-((4-aminoazepan-1-yl)methyl)cyclohex-1-en-1-yl)-2-oxo-1,2-dihydropyrimidin-4-yl)piperazine-1-carboxamide hydrochloride salt], the minimal inhibitory concentration (MIC) was under 8 µg/mL with S. aureus (Sa); under 8 µg/mL in the test with E. coli (Ec); over 32 µg/mL with P. aeruginosa (Pa); over 32 µg/mL in the test on A. baumannii (Ab); under 8 µg/mL in the test with E. faecalis (Ef). Also, the IC50 is under 500 nM in the test on E. coli S30 extract and at least 1000 nM in test [1].
For `CC(C)(N)C(=O)N1CCN(C(=O)Nc2ccn(C3=CCC(CN4CC[C@H](CN)C4)CC3)c(=O)n2)CC1` (stereo in doubt) [Compound 23, (S)-4-(2-Amino-2-methylpropanoyl)-N-(1-(4-((3-(aminomethyl)pyrrolidin-1-yl)methyl)cyclohex-1-en-1-yl)-2-oxo-1,2-dihydropyrimidin-4-yl)piperazine-1-carboxamide hydrochloride salt], the MIC with S. aureus (Sa) is under 8 µg/mL; in the test on E. coli (Ec) it was under 8 µg/mL; with P. aeruginosa (Pa), over 32 µg/mL; with A. baumannii (Ab), over 32 µg/mL; with E. faecalis (Ef), 8 to 32 µg/mL. Besides, the IC50 in the test on E. coli S30 extract is under 500 nM; in test [1], at least 1000 nM.
Turning to `CC(C)(N)C(=O)N1CCN(C(=O)Nc2ccn(C3=CCC(CN4CC[C@@H](CN)C4)CC3)c(=O)n2)CC1` (stereo in doubt) [Compound 24, (R)-4-(2-Amino-2-methylpropanoyl)-N-(1-(4-((3-(aminomethyl)pyrrolidin-1-yl)methyl)cyclohex-1-en-1-yl)-2-oxo-1,2-dihydropyrimidin-4-yl)piperazine-1-carboxamide hydrochloride salt], the MIC in the test on S. aureus (Sa) was under 8 µg/mL; in the test on E. coli (Ec), under 8 µg/mL; in the test on P. aeruginosa (Pa) it was over 32 µg/mL; in the test on A. baumannii (Ab) it was over 32 µg/mL; with E. faecalis (Ef), over 32 µg/mL. Moreover, the figures for the IC50 (with E. coli S30 extract; in test [1]) were under 500 nM and at least 1000 nM, respectively.
Regarding `CC(C)(N)C(=O)N1CCN(C(=O)Nc2ccn(C3CCC(CN(CCF)C4CCC(N)CC4)CC3)c(=O)n2)CC1` (stereo in doubt) [Compound 48, trans-cis-4-(2-Amino-2-methylpropanoyl)-N-(1-(4-(((4-aminocyclohexyl)(2-fluoroethyl)amino)methyl)cyclohexyl)-2-oxo-1,2-dihydropyrimidin-4-yl)piperazine-1-carboxamide hydrochloride salt], the MIC in the test on S. aureus (Sa) is 8 to 32 µg/mL; in the test on E. coli (Ec) it was 8 to 32 µg/mL; with P. aeruginosa (Pa), over 32 µg/mL; with A. baumannii (Ab) it was over 32 µg/mL; in the test on E. faecalis (Ef) it was 8 to 32 µg/mL. For the same compound, the figures for the IC50 (in the test with E. coli S30 extract; in test [1]) were under 500 nM and at least 1000 nM, respectively.
In the case of `CC(C)(N)C(=O)N1CCN(C(=O)Nc2ccn(C3=CCC(CN[C@H]4CC[C@H](N)CC4)CC3)c(=O)n2)CC1` (stereo partly drawn) [Compound 1, 4-(2-Amino-2-methylpropanoyl)-N-(1-(4-(((trans-4-aminocyclohexyl)amino)methyl)cyclohex-1-en-1-yl)-2-oxo-1,2-dihydropyrimidin-4-yl)piperazine-1-carboxamide hydrochloride salt], the MIC is under 8 µg/mL in the test with S. aureus (Sa); under 8 µg/mL in the test on E. coli (Ec); over 32 µg/mL in the test on P. aeruginosa (Pa); over 32 µg/mL with A. baumannii (Ab); 8 to 32 µg/mL in the test on E. faecalis (Ef). Besides, the IC50 in the test on E. coli S30 extract was under 500 nM; in test [1] it was at least 1000 nM.
On to `CC(C)(N)C(=O)N1CCN(C(=O)Nc2ccn(C3=CCC(CN4C[C@@H]5[C@@H](CN)[C@@H]5C4)CC3)c(=O)n2)CC1` (stereo partly drawn) [Compound 2, 4-(2-Amino-2-methylpropanoyl)-N-(1-(4-((exo-6-(aminomethyl)-3-azabicyclo[3.1.0]hexan-3-yl)methyl)cyclohex-1-en-1-yl)-2-oxo-1,2-dihydropyrimidin-4-yl)piperazine-1-carboxamide hydrochloride salt], for which the minimum inhibitory concentration (MIC) in the test with S. aureus (Sa) (S. aureus, CAMHB supplemented with sodium bicarbonate 25 mM) was under 8 µg/mL; with E. coli (Ec) (E. coli, CAMHB supplemented with sodium bicarbonate 25 mM), under 8 µg/mL; in the test with P. aeruginosa (Pa) (P. aeruginosa, CAMHB supplemented with sodium bicarbonate 25 mM), over 32 µg/mL; with A. baumannii (Ab) (A. baumannii, CAMHB supplemented with sodium bicarbonate 25 mM) it was over 32 µg/mL; in the test with E. faecalis (Ef) (E. faecalis, CAMHB supplemented with sodium bicarbonate 25 mM), under 8 µg/mL. Also, the IC50 in the test with E. coli S30 extract is under 500 nM; in test [1] it was at least 1000 nM.
On to `CC(C)(N)C(=O)N1CCN(C(=O)Nc2ccn(C3=CCC(CN[C@H]4CC[C@H](N)C4)CC3)c(=O)n2)CC1` (stereo partly drawn) [Compound 3, 4-(2-Amino-2-methylpropanoyl)-N-(1-(4-((((1S,3S)-3-aminocyclopentyl)amino)methyl)cyclohex-1-en-1-yl)-2-oxo-1,2-dihydropyrimidin-4-yl)piperazine-1-carboxamide hydrochloride salt], for which the minimal inhibitory concentration (MIC) with S. aureus (Sa) was under 8 µg/mL; with E. coli (Ec), under 8 µg/mL; in the test with P. aeruginosa (Pa), over 32 µg/mL; in the test with A. baumannii (Ab), over 32 µg/mL; in the test with E. faecalis (Ef), over 32 µg/mL. Also, the figures for the IC50 (in the test on E. coli S30 extract; in test [1]) were under 500 nM and at least 1000 nM, respectively.
As to `CC(C)(N)C(=O)N1CCN(C(=O)Nc2ccn(C3=CCC(CN4CCCC(N)CC4)CC3)c(=O)n2)CC1` (centres unmarked) [Compound 4, 4-(2-Amino-2-methylpropanoyl)-N-(1-(4-((4-aminoazepan-1-yl)methyl)cyclohex-1-en-1-yl)-2-oxo-1,2-dihydropyrimidin-4-yl)piperazine-1-carboxamide hydrochloride salt], the MIC is under 8 µg/mL with S. aureus (Sa); under 8 µg/mL in the test with E. coli (Ec); over 32 µg/mL in the test with P. aeruginosa (Pa); over 32 µg/mL in the test with A. baumannii (Ab); under 8 µg/mL with E. faecalis (Ef). In addition, the IC50 in the test on E. coli S30 extract is under 500 nM; in test [1], at least 1000 nM.
